Results: paper PMC3502511, “Inhibition of the Prokaryotic Pentameric Ligand-Gated Ion Channel ELIC by Divalent Cations” (PLoS Biology, 2012)

Columns and labels:
[1] = target: T1, ELIC E150A (Dickeya chrysanthemi, UniProt P0C7B7, E150A/INS163G); assay: Two-electrode voltage clamp, ELIC E150A in oocytes; type: cell-based, Erwinia chrysanthemi; details: agonist cysteamine
T1 construct: expressed in transfected cells; host or cells: X. laevis oocytes
Description: (§1) Constructs containing the gene of either the WT or mutant channels preceded by the signal sequence of the chicken α7nAchR were cloned into the pTLN vector for expression in X. laevis oocytes. After linearization of the plasmid DNA by MluI, capped complementary RNA was transcribed with the mMessage mMachine kit (Ambion) and purified with the RNeasy kit (Qiagen). For expression, 1–50 ng of RNA was injected into defolliculated oocytes. Two-electrode voltage clamp measurements were performed 1 d after injection at 20°C (OC-725B, Warner Instrument Corp.). Currents were recorded in bath solutions containing 10 mM HEPES (pH 7), 130 mM NaCl, and the indicated concentrations of cysteamine and divalent cations. In case of solutions containing Zn^2+, cysteamine was replaced by propylamine. The membrane potential in all dose–response measurements was set to −40 mV. As ELIC is permeable to divalent cations, we tested if endogenous calcium-activated chloride channels affected our measurements. To chelate intracellular calcium ions, the oocytes were incubated for 15 to 30 min in bath solutions lacking divalent ions but containing 10 µM BAPTA-AM.

[2] = target: T2, ELIC D113N (Dickeya chrysanthemi, UniProt P0C7B7, D113N/INS163G); assay: Two-electrode voltage clamp, ELIC D113N in oocytes; type: cell-based, Erwinia chrysanthemi; details: agonist cysteamine
T2 construct: expressed in transfected cells; host or cells: X. laevis oocytes
Description: as §1

Compound NCCS [cysteamine] has an EC50 ([1]; Ca^2+ 0 mM) of 1.4 mM, an EC50 ([1]; Ca^2+ 1 mM) of 2.2 mM and an EC50 ([1]; Ca^2+ 5 mM) of 6.1 mM. For the same compound, the EC50 ([1]; Ca^2+ 10 mM) was 8.99 mM, the EC50 ([2]; Ca^2+ 0 mM) was 0.92 mM and the EC50 ([2]; Ca^2+ 1 mM) was 1.81 mM. The EC50 ([2]; Ca^2+ 5 mM) was 5.59 mM and the EC50 ([2]; Ca^2+ 10 mM) was 9.78 mM.
